In patent US20020028474A1, “Composition for immunohistochemical staining” (DAIICHI PURE CHEMICAL CO., LTD., priority 1996, published 2002):
Where a name gives a salt, the structure may show the parent alone. Each block holds one compound with its values, some of them ahead of it.

Tests used:
Assay type in all cases: physicochemical
[1] = Fluorescence observed by infrared ray microscope on cotton gauze thread, with or without sodium distearoylphosphatidate/octyl glucoside solution (Example 1); parameters: key: +++: Definitely bright; ++: Bright.; +: Observable; ±: Slightly observable; settings: for Fluorescence intensity, No addition group: no DSPA/OG solution; for Fluorescence intensity, Addition group: sodium distearoylphosphatidate + octyl glucoside solution added
Protocol: Octyl glucoside (Dojindo Laboratories, 880 mg) was carefully added to phosphate buffered saline (10 ml, pH 7.4) and dissolved with stirring on a water bath at 40° C. Sodium distearoylphosphatidate (148.8 mg) was added to the resulting solution and dissolved with stirring over a water bath at 60° C., and then the solution was added with phosphate buffered saline up to a final volume of 20 ml. The solution was returned to room temperature and stored as frozen aliquots of 1 ml volume before use. The final concentrations of sodium distearoylphosphatidate and octyl glucoside in the solution were 10 mM and 150 mM, respectively.
The above diagnosis marker (54 μg) in the lyophilized state was added with 10% (v/v) dimethyl sulfoxide (DMSO)/phosphate buffered saline (20 μl, pH 7.4) and dissolved. The above solution of sodium distearoylphosphatidate and octyl glucoside (5 μl) was added to 5 μl of the resulting solution, which was warmed beforehand, and mixed by repeating careful suction and ejection using a micropipette to obtain a composition of the present invention in the form of an aqueous solution. By using an indocyanine green (ICG) solution, ICC-sulfo-OSu solution, and water (control) instead of the solution of the diagnosis marker, aqueous compositions were prepared in the same manner as described above.
BHSM-IR (Olympus Optical) was used as an infrared ray microscope that allows observation in visible light to near infrared light region. The microscope was equipped with an excitation light transmitting filter that transmits lights of 710-790 nm (Asahi Bunko) under the sample, and with an excitation light cutting filter that transmits lights of 810-920 nm (Asahi Bunko) over the sample. KP-MI from Hitachi Electronic Engineering was used as a CCD, and fluorescence caught by the CCD was taken into an image collecting apparatus (EVIP-230, Olympus Optical), and recorded in an image recording apparatus (S321S, Olympus Optical) via an amplification system (Olympus Optical).
5 μl of each of the samples was dropped onto a cotton gauze thread (1 cm) placed on an object glass, and images were observed under irradiation by ordinary light and infrared light using the above optical system. […] The recorded images were converted into final images through an image processing comprising the steps of integration of an original image, integration of a background image, formation of a subtraction image, formation of a filtering image, and contrast enhancement by using the above-mentioned apparatus. […] In the table, all of the concentrations indicate those calculated based on ICG concentration. […] In the figure, (a) represents the result obtained under irradiation of ordinary light, and (b) represents the result obtained under irradiation of infrared ray.

[2] = Fluorescence spectrum of compositions of ICG-sulfo-OSu-labeled mouse anti-mucin antibody with fluorescence intensity enhancing agents (Example 2); settings: 1 ppm, λex=255 nm, λem=451 nm
Protocol: The above diagnostic marker in the form of lyophilized product obtained from the mouse anti-mucin antibody (100 μg) was added with 4.0 ml of phosphate buffered saline and dissolved. 1.5 ml of the resulting solution was added with 1.5 ml of a solution of the fluorescence intensity enhancing agent of the present invention, and then the mixture was warmed over a water bath at 50° C. to prepare a final sample. As a control, a solution was prepared in the same manner by adding 1.5 ml of phosphate buffered saline. The final antibody concentration in the diagnostic marker was 83.3 nM, and the ICG-sulfo-OSu concentration was 1.33 μM. Fluorescence spectrum of each sample was measured by using a Hitachi spectrophotometer 650-40. The slit width was 5 nm for each of excitation light and fluorescence.

[3] = Fluorescence intensity enhancing effect versus octyl glucoside concentration (Example 3); settings: for Fluorescence intensity (standard): 1 ppm, λex=251 nm, λem=450 nm; for Fluorescence wavelength / Fluorescence intensity: excitation 768 nm; for Fluorescence intensity: labeled anti-mucin antibody 83.3 nM, 50° C.
Protocol: The final antibody concentration in the diagnostic markers was 83.3 nM, and the IOG-sulfo-OSu concentration was 1.33 μM. Fluorescence spectra of the samples were measured in the same manner as in Example 2. The slit width was 2 nm for each of excitation light and fluorescence.

[4] = before the spectrum measurement

Fluorescence intensity, No addition group ([1]; 10 μg/ml in terms of ICG): + | Fluorescence intensity, Addition group ([1]; 10 μg/ml in terms of ICG): + | Fluorescence intensity, No addition group ([1]; 100 μg/ml in terms of ICG): ± | Fluorescence intensity, Addition group ([1]; 100 μg/ml in terms of ICG): ++
Structure (SMILES): CC1(C)C(/C=C/C=C/C=C/C=C2\N(CCCCS(=O)(=O)[O-])c3ccc4ccccc4c3C2(C)C)=[N+](CCCCCC(=O)ON2C(=O)CC(S(=O)(=O)[O-])C2=O)c2ccc3ccccc3c21.[Na+] (stereo not drawn) [ICG-sulfo-OSu, indocyanine green-N-hydroxysulfosuccinimide ester]

Fluorescence intensity (standard) ([2]; after the spectrum measurement): 69.5 | Fluorescence intensity (standard) [2, 4]: 68.0 | Fluorescence intensity (standard) ([3]; after the spectrum measurement): 96.0 | Fluorescence intensity (standard) [3, 4]: 100.0
Structure (SMILES): C=C[C@H]1C[N@@]2CC[C@H]1C[C@H]2[C@H](O)c1ccnc2ccc(OC)cc12 [quinine sulfate, reference compound]

Fluorescence wavelength ([3]; OG 1.0 mM): 806 nm | Fluorescence intensity ([3]; OG 1.0 mM): 0.150 | Fluorescence wavelength ([3]; OG 1.50 mM): 821 nm | Fluorescence intensity ([3]; OG 1.50 mM): 0.588 | Fluorescence wavelength ([3]; OG 5.0 mM): 804 nm | Fluorescence intensity ([3]; OG 5.0 mM): 0.150 | Fluorescence wavelength ([3]; OG 10.0 mM): 809 nm | Fluorescence intensity ([3]; OG 10.0 mM): 0.189 | Fluorescence wavelength ([3]; OG 20.0 mM): 817 nm | Fluorescence intensity ([3]; OG 20.0 mM): 0.436 | Fluorescence wavelength ([3]; OG 37.5 mM): 817 nm | Fluorescence intensity ([3]; OG 37.5 mM): 0.520 | Fluorescence wavelength ([3]; OG 50.0 mM): 820 nm | Fluorescence intensity ([3]; OG 50.0 mM): 0.515 | Fluorescence wavelength ([3]; OG 75.0 mM): 816 nm | Fluorescence intensity ([3]; OG 75.0 mM): 0.525 | Fluorescence wavelength ([3]; OG 100 mM): 816 nm | Fluorescence intensity ([3]; OG 100 mM): 0.600
Structure (SMILES): CCCCCCCCO[C@@H]1O[C@H](CO)[C@@H](O)[C@H](O)[C@H]1O [OG, octyl glucoside]
shift of fluorescence wavelength to a longer wavelength region versus octyl glucoside concentration ([3]; ICG-sulfo-OSu labeled anti-mucin antibody): sharp increases were observed at concentrations near the critical micelle concentration | dependence of fluorescence intensity on octyl glucoside concentration ([3]; ICG-sulfo-OSu labeled anti-mucin antibody, critical micelle concentration 25 mM): Sharp increases of fluorescence intensity were observed at concentrations near the critical micelle concentration

Fluorescence intensity, No addition group ([1]; 1 mg/ml in terms of ICG, fluorescence at 800 nm or more): ++ | Fluorescence intensity, Addition group ([1]; 1 mg/ml in terms of ICG): ++
Structure (SMILES): CC1(C)C(/C=C/C=C/C=C/C=C2\N(CCCCS(=O)(=O)O)c3ccc4ccccc4c3C2(C)C)=[N+](CCCCS(=O)(=O)[O-])c2ccc3ccccc3c21 [ICC, indocyanine green]
